From patent US20240425512A1, “NITROGEN-CONTAINING HETEROCYCLIC COMPOUND, PHARMACEUTICAL COMPOSITION THEREOF AND APPLICATION THEREOF” (280 Bio, Inc., priority 2023, published 2024)
pIC50: −log10 of the molar value. Read-outs that look alike come from different tables or passages of the source.

Key:
Type in all cases: cell-based
[1] = system: NCI-H441 lung cancer cell with KRAS G12V mutation; experiment: Proliferation inhibition on RAS cell lines measured by CTG, NCI-H441; conditions: Homo sapiens, NCI-H441, 144 h, Table 2; NCI-H441 cells, incubated for 6 days, CellTiter Glo
Description: (§1) NCI-H358 is a human non-small cell lung cancer cell line with KRAS G12C mutation; AGS is a gastric cancer cell line with KRAS G12D mutation; SW620 is a colon cancer cell with KRAS G12V mutation; NCI-H460 is a non-small cell lung cancer cell with KRAS Q61H mutation; MKN1 is a wild-type gastric cancer cell with KRAS-amplified; LS513 is a colon cancer cell with KRAS G12D mutation; LoVo is a colon cancer cell with KRAS G13D mutation; NCI-H441 is a lung cancer cell with KRAS G12V mutation, and Capan-2 is a pancreatic cancer cell with KRAS G12V mutation.
(§2) The proliferation inhibitory effect of the compounds on various mutations was evaluated by determining the proliferation inhibitory activity of the compounds on these cell lines.
(§3) The assay was conducted on either 384-well plates or 96-well plates. The procedures are as follows:
(§4) The cell suspensions were added to 384- or 96-well plates (384-well plate: 50 μL; 96-well plate: 100 μL) except for peripheral wells. The plates were placed in a carbon dioxide incubator overnight. NCI-H358, AGS, NCI-H460, MKN-1, LS513, LoVo, and NCI-H441 were placed in a 5%, 370 carbon dioxide incubator overnight, and SW620 was placed in a 0%, 370 carbon dioxide incubator overnight. The HPD300 micro-dosing instrument was used to add the corresponding concentration of compound to each well (9-10 concentration gradients of compound were obtained by 3-fold dilution). Cell plates were incubated in a carbon dioxide incubator for 5-6 days. NCI-H358, AGS, NCI-H460 and MKN-1 were incubated at 5%, 37° incubator and SW620 was incubated at 0%, 370 incubator. On the day of plate measurement, the 384- or 96-well plates were first equilibrated at room temperature for 10-30 min, then CellTiter Glo reagent (384-well plate: 25 μL; 96-well plate: 100 μL) was added to the 384- or 96-well plate, shaken for 10 min away from light, and incubated for 10 min. The plates were placed into Victor NIVO or ENVIDION reader plates, and XLFit was utilized to plot the pharmacodynamic inhibition curve and calculate the IC50 value. “IC50>10 μM” is denoted by “*”, “10 μM≥IC50≥1 μM” is denoted by “**”, and “1 μM≥IC50>100 nM” is denoted by “***”, “IC50<100 nM” is denoted by “****”

[2] = system: LS513 colon cancer cell with KRAS G12D mutation; experiment: Proliferation inhibition on RAS cell lines measured by CTG, LS513; conditions: LS513 cells, incubated for 6 days, CellTiter Glo
Description: as §1, §2, §3, §4

[3] = system: SW620 colon cancer cell with KRAS G12V mutation; experiment: Proliferation inhibition on RAS cell lines measured by CTG, SW620; conditions: Homo sapiens, SW-620, 144 h; Table 2; SW620 cells, incubated for 6 days, CellTiter Glo; read-out: IC50 (SW620^c)
Description: as §1, §2, §3, §4

GP2D cells = experiment: Proliferation inhibition on RAS cell lines measured by CTG, GP2D; conditions: Table 3, incubated for 6 days, CellTiter Glo, read-out: IC50 (GP2D^l)
Procedure: as §2, §3, §4

[4] = Homo sapiens, LS-513, 144 h, Table 2, read-out: IC50 (LS513^f)
[5] = Homo sapiens, LS-513, 144 h, Table 3, read-out: IC50 (LS513^k)
[6] = Table 3, read-out: IC50 (LS513^k)

SMILES	pIC50 [2, 5]	pIC50 (GP2D cells; 144 h)	other results
C#Cc1c(F)ccc2cc(O)cc(-c3ncc4c(N5CCCCCCN5)nc(OC[C@@]56CCCN5C[C@H](F)C6)nc4c3F)c12 [Compound 15]	–	–	pIC50 [1]: 6.00 to 7.00; pIC50 [2, 4]: 6.00 to 7.00
C#Cc1c(F)ccc2cc(O)cc(-c3ncc4c(N5CCCCN5C(=O)OC(C)(C)C)nc(OC[C@@]56CCCN5C[C@H](F)C6)nc4c3F)c12 [Compound 17]	–	–	pIC50 [1]: 6.00 to 7.00; pIC50 [2, 4]: > 7.00
C#Cc1c(F)ccc2cc(N)cc(-c3ncc4c(N5CCCCCN5)nc(OC[C@@]56CCCN5C[C@H](F)C6)nc4c3F)c12 [Compound 30]	–	–	pIC50 [2, 4]: > 7.00; pIC50 [3]: > 7.00
C#Cc1c(F)ccc2cc(O)cc(-c3ncc4c(N5CCCCCN5)nc(OCC56CCCN5CC(F)(F)C6)nc4c3F)c12 (centres unmarked) [Compound 37]	–	–	pIC50 [2, 4]: > 7.00; pIC50 [3]: > 7.00
C#Cc1c(F)ccc2cc(O)cc(-c3ncc4c(N5CCCC(O)CN5)nc(OC[C@@]56CCCN5C[C@H](F)C6)nc4c3F)c12 (some centres unmarked) [Compound 38]	–	–	pIC50 [3]: 5.00 to 6.00
C#Cc1c(F)ccc2cc(O)cc(-c3ncc4c(N5CC(O)CCCN5)nc(OC[C@@]56CCCN5C[C@H](F)C6)nc4c3F)c12 (some centres unmarked) [Compound 39]	–	–	pIC50 [3]: 5.00 to 6.00
C#Cc1c(F)ccc2cc(O)cc(-c3c(Cl)cc4c(N5CCCCCN5)nc(OC[C@@]56CCCN5C[C@H](F)C6)nc4c3F)c12 [Compound 41]	–	–	pIC50 [3]: 5.00 to 6.00
C#Cc1c(F)ccc2cc(O)cc(-c3c(F)cc4c(N5CCCCCN5)nc(OC[C@@]56CCCN5C[C@H](F)C6)nc4c3F)c12 [Compound 49]	–	–	pIC50 [2, 4]: > 7.00; pIC50 [3]: > 7.00
C/C=C\c1c(Cl)cc2[nH]ncc2c1-c1c(F)cc2c(N3CCCCCN3)nc(OC[C@@]34CCCN3C[C@H](F)C4)nc2c1F [Compound 50]	–	–	pIC50 [2, 4]: 6.00 to 7.00; pIC50 [3]: 6.00 to 7.00
C#Cc1c(F)ccc2cc(OC(=O)NCCOCCOC)cc(-c3ncc4c(N5CCCCCN5)nc(OC[C@@]56CCCN5C[C@H](F)C6)nc4c3F)c12 [Compound 92]	> 7.00	> 7.00	–
C#Cc1c(F)ccc2cc(OC(=O)NCCOC)cc(-c3ncc4c(N5CCCCCN5)nc(OC[C@@]56CCCN5C[C@H](F)C6)nc4c3F)c12 [Compound 93]	> 7.00	> 7.00	–
C#Cc1c(F)ccc2cc(OC(=O)NCCCC)cc(-c3ncc4c(N5CCCCCN5)nc(OC[C@@]56CCCN5C[C@H](F)C6)nc4c3F)c12 [Compound 94]	> 7.00	> 7.00	–
C#Cc1c(F)ccc2cc(OC(=O)[C@@H](NC(=O)OC(C)(C)C)C(C)C)cc(-c3ncc4c(N5CCCCCN5)nc(OC[C@@]56CCCN5C[C@H](F)C6)nc4c3F)c12 [Compound 95]	–	–	pIC50 [2, 6]: > 7.00; pIC50 (GP2D cells): > 7.00
C#Cc1c(F)ccc2cc(OC(=O)N[C@H](C(=O)O)[C@@H](C)CC)cc(-c3ncc4c(N5CCCCCN5)nc(OC[C@@]56CCCN5C[C@H](F)C6)nc4c3F)c12 [Compound 96]	–	–	pIC50 [2, 6]: > 7.00; pIC50 (GP2D cells): > 7.00
C#Cc1c(F)ccc2cc(OC(=O)N(CCOC)CCOC)cc(-c3ncc4c(N5CCCCCN5)nc(OC[C@@]56CCCN5C[C@H](F)C6)nc4c3F)c12 [Compound 98]	> 7.00	> 7.00	–
C#Cc1c(F)ccc2cc(OC(=O)N3CCCCC3)cc(-c3ncc4c(N5CCCCCN5)nc(OC[C@@]56CCCN5C[C@H](F)C6)nc4c3F)c12 [Compound 99]	> 7.00	> 7.00	–
C#Cc1c(F)ccc2cc(OC(=O)NCCCCCCCCCCCCCCCC)cc(-c3ncc4c(N5CCCCCN5)nc(OC[C@@]56CCCN5C[C@H](F)C6)nc4c3F)c12 [Compound 101]	> 7.00	> 7.00	–

SMILES	pIC50 [2, 5]	pIC50 (GP2D cells; 144 h)	other results
C#Cc1c(F)ccc2cc(OC(=O)COCCOCCOCCOC)cc(-c3ncc4c(N5CCCCCN5)nc(OC[C@@]56CCCN5C[C@H](F)C6)nc4c3F)c12 [Compound 102]	–	–	pIC50 [2, 6]: > 7.00; pIC50 (GP2D cells): > 7.00
C#Cc1c(F)ccc2cc(O)cc(-c3ncc4c(N5CCCCCN5)nc(OC[C@@]56CC[C@H](c7cc(F)c(F)c(F)c7)N5C[C@H](F)C6)nc4c3F)c12 [Compound 103]	–	–	pIC50 [2, 6]: > 7.00; pIC50 (GP2D cells): > 7.00
C#Cc1c(F)ccc2cc(O)cc(-c3ncc4c(N5CCCCCN5)nc(OCC5(CN6CCC(=CF)CC6)CC5)nc4c3F)c12 [Compound 106]	> 7.00	> 7.00	–
C#Cc1c(F)ccc2cc(O)cc(-c3ncc4c(N5CCCCCN5)nc(OC[C@@]56CC[C@H](c7cc(F)c(C(F)(F)F)c(F)c7)N5C[C@H](F)C6)nc4c3F)c12 [Compound 117]	6.00 to 7.00	6.00 to 7.00	–
C#Cc1c(F)ccc2cc(O)cc(-c3ncc4c(N5CCCCCN5)nc(OC[C@@]56CC[C@H](c7ccc(C(F)(F)F)c(F)c7)N5C[C@H](F)C6)nc4c3F)c12 [Compound 118]	6.00 to 7.00	6.00 to 7.00	–
C#Cc1c(F)ccc2cc(O)cc(-c3ncc4c(N5CCCCCN5)nc(OC[C@@]56CC[C@H](c7ccc(OC(F)(F)F)cc7)N5C[C@H](F)C6)nc4c3F)c12 [Compound 121]	6.00 to 7.00	6.00 to 7.00	–
CCc1c(F)ccc2c(F)c(O)cc(-c3ncc4c(N5CCCCCN5)nc(OC[C@@]56CCCN5C[C@H](F)C6)nc4c3F)c12 [Compound 125]	–	–	pIC50 [2, 6]: 6.00 to 7.00; pIC50 (GP2D cells): 6.00 to 7.00
C#Cc1c(F)ccc2cc(OC(=O)c3cc(F)c(F)c(F)c3)cc(-c3ncc4c(N5CCCCCN5)nc(OC[C@@]56CCCN5C[C@H](F)C6)nc4c3F)c12 [Compound 126]	–	–	pIC50 [2, 6]: > 7.00; pIC50 (GP2D cells): > 7.00
C#Cc1c(F)ccc2cc(N)cc(-c3c(F)cc4c(N5CCCCCN5)nc(OC[C@@]56CCCN5C[C@H](F)C6)nc4c3F)c12 [Compound 131]	–	–	pIC50 [2, 6]: 6.00 to 7.00; pIC50 (GP2D cells): 6.00 to 7.00
C#Cc1c(F)ccc2cc(OC(=O)NCCCCCCCCCCCC)cc(-c3ncc4c(N5CCCCCN5)nc(OC[C@@]56CCCN5C[C@H](F)C6)nc4c3F)c12 [Compound 133]	> 7.00	> 7.00	–
CCc1c(F)ccc2cc(N)cc(-c3c(Cl)cc4c(N5CCCCCN5)nc(OC[C@@]56CCCN5C[C@H](F)C6)nc4c3F)c12 [Compound 134]	6.00 to 7.00	5.00 to 6.00	–
C#Cc1c(F)ccc2cc(O)cc(-c3ncc4c(N5CCCCCN5)nc(OCC56COC(C5)C6)nc4c3F)c12 [Compound 137]	6.00 to 7.00	6.00 to 7.00	–
C#Cc1c(F)ccc2cc(OCOC(=O)N(C)C)cc(-c3ncc4c(N5CCCCCN5)nc(OC[C@@]56CCCN5C[C@H](F)C6)nc4c3F)c12 [Compound 145]	6.00 to 7.00	6.00 to 7.00	–
C#Cc1c(F)ccc2cc(O)cc(-c3ncc4c(N5CCCCCN5)nc(OCC5(C)CN(C)CCC5C(F)F)nc4c3F)c12 (centres unmarked) [Compound 149]	> 7.00	> 7.00	–
C#Cc1c(F)ccc2cc(O)cc(-c3ncc4c(N5CCCCCN5)nc(OCC5(C)CN(C)CCC5CF)nc4c3F)c12 (centres unmarked) [Compound 150]	> 7.00	> 7.00	–
C#Cc1c(F)ccc2cc(OC(=O)N(C)C[C@@H]3CCCN3)cc(-c3ncc4c(N5CCCCCN5)nc(OC[C@@]56CCCN5C[C@H](F)C6)nc4c3F)c12 [Compound 151]	> 7.00	> 7.00	–
C#Cc1c(F)ccc2cc(OC(=O)N(C)CCNC)cc(-c3ncc4c(N5CCCCCN5)nc(OC[C@@]56CCCN5C[C@H](F)C6)nc4c3F)c12 [Compound 153]	> 7.00	> 7.00	–
